Blank lines part the entries; values can stand above or below the compound they belong to.
Assays:
[1] = target: Tyrosine-protein kinase SYK (Homo sapiens) (UniProt P43405); assay: Inhibition of SYK (unknown origin) at 0.078 uM relative to control
[2] = target: Serine/threonine-protein kinase PAK 2 (Homo sapiens) (UniProt Q13177); assay: Inhibition of PAK2 (unknown origin) at 0.078 uM relative to control
[3] = target: Protein kinase C beta type (Homo sapiens) (UniProt P05771); assay: Inhibition of PKC-beta2 (unknown origin) at 0.078 uM relative to control
[4] = target: Serine/threonine-protein kinase pim-2 (Homo sapiens) (UniProt Q9P1W9); assay: Inhibition of PIM2 (unknown origin) at 0.078 uM relative to control
[5] = target: Tyrosine-protein kinase BTK (Homo sapiens) (UniProt Q06187); assay: Inhibition of BTK (unknown origin) at 0.078 uM relative to control
[6] = target: T1, Serine/threonine-protein kinase 3 (Homo sapiens) (UniProt Q13188); assay: Inhibition of MST2 (unknown origin) at 0.078 uM relative to control
T1 sequence (whole entry): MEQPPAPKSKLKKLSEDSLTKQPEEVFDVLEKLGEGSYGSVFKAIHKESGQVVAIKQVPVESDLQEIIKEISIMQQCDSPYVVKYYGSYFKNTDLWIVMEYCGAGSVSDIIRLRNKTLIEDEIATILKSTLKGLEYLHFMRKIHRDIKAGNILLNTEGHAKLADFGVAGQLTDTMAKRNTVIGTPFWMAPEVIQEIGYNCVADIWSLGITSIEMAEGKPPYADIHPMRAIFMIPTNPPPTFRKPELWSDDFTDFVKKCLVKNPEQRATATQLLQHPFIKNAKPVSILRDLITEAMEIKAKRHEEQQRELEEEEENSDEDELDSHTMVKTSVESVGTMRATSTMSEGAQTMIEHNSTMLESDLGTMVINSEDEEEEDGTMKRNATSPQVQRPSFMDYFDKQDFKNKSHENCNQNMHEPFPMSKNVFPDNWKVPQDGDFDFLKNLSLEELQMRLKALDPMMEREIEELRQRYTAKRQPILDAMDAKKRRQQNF

[7] = target: Protein kinase C iota type (Homo sapiens) (UniProt P41743); assay: Inhibition of PKC-iota (unknown origin) at 0.49 uM relative to control
[8] = target: Serine/threonine-protein kinase 10 (Homo sapiens) (UniProt O94804); assay: Inhibition of LOK (unknown origin) at 0.49 uM relative to control
[9] = target: Cyclin-dependent kinase 5/CDK5 activator 1 (Homo sapiens) (UniProt Q00535+Q15078); assay: Inhibition of CDK5/p25 (unknown origin) at 0.49 uM relative to control; type: protein-complex assay
[10] = target: Tyrosine-protein kinase Fgr (Homo sapiens) (UniProt P09769); assay: Inhibition of FGR (unknown origin) at 0.49 uM relative to control
[11] = target: MAP kinase-activated protein kinase 2 (Homo sapiens) (UniProt P49137); assay: Inhibition of MAPKAPK2 (unknown origin) at 0.49 uM relative to control
[12] = target: Macrophage-stimulating protein receptor (Homo sapiens) (UniProt Q04912); assay: Inhibition of MST1R (unknown origin) at 0.49 uM relative to control
[13] = target: Proto-oncogene tyrosine-protein kinase Src (Homo sapiens) (UniProt P12931); assay: Inhibition of SRC (unknown origin) at 0.49 uM relative to control
[14] = target: Mitogen-activated protein kinase 14 (Homo sapiens) (UniProt Q16539); assay: Inhibition of p38a (unknown origin) at 0.49 uM relative to control
[15] = target: Mast/stem cell growth factor receptor Kit (Homo sapiens) (UniProt P10721); assay: Inhibition of KIT (unknown origin) at 0.49 uM relative to control
[16] = target: Ephrin type-A receptor 3 (Homo sapiens) (UniProt P29320); assay: Inhibition of EPHA3 (unknown origin) at 0.49 uM relative to control
[17] = target: Serine/threonine-protein kinase 4 (Homo sapiens) (UniProt Q13043); assay: Inhibition of MST1 (unknown origin) at 0.49 uM relative to control
[18] = target: CDK6/cyclin D3 (Homo sapiens) (UniProt P30281+Q00534); assay: Inhibition of CDK6/CyclinD3 (unknown origin) at 0.49 uM relative to control; type: protein-complex assay
[19] = target: Mitogen-activated protein kinase kinase kinase kinase 5 (Homo sapiens) (UniProt Q9Y4K4); assay: Inhibition of KHS1 (unknown origin) at 0.49 uM relative to control
[20] = target: AMPK alpha2/beta1/gamma1 (Homo sapiens) (UniProt P54646+P54619+Q9Y478); assay: Inhibition of AMPK-alpha2/beta1/gamma1 (unknown origin) at 0.49 uM relative to control; type: protein-complex assay
[21] = target: Calcium/calmodulin-dependent protein kinase type II subunit alpha (Homo sapiens) (UniProt Q9UQM7); assay: Inhibition of CaMK2a (unknown origin) at 0.49 uM relative to control
[22] = target: Serine/threonine-protein kinase MARK1 (Homo sapiens) (UniProt Q9P0L2); assay: Inhibition of MARK1 (unknown origin) at 0.49 uM relative to control
[23] = Metabolic stability in mouse liver microsomes assessed as […] by measuring parent compound remaining at 1 uM after 0.5 hrs by LC-MS/MS analysis; type: ADME; settings: read-out: Stability
[24] = target: Serine/threonine-protein kinase MARK2 (Homo sapiens) (UniProt Q7KZI7); assay: Inhibition of MARK2 (unknown origin) at 0.45 uM relative to control
[25] = target: Rho-associated protein kinase 2 (Homo sapiens) (UniProt O75116); assay: Inhibition of ROCK2 (unknown origin) at 0.45 uM relative to control
[26] = target: Mitogen-activated protein kinase 1 (Homo sapiens) (UniProt P28482); assay: Inhibition of Erk2 (unknown origin) at 0.45 uM relative to control
[27] = target: Serine/threonine-protein kinase Nek1 (Homo sapiens) (UniProt Q96PY6); assay: Inhibition of NEK1 (unknown origin) at 0.45 uM relative to control
[28] = target: Serine/threonine-protein kinase DCLK2 (Homo sapiens) (UniProt Q8N568); assay: Inhibition of DCAMKL2 (unknown origin) at 0.45 uM relative to control
[29] = target: Ribosomal protein S6 kinase alpha-4 (Homo sapiens) (UniProt O75676); assay: Inhibition of MSK2 (unknown origin) at 0.45 uM relative to control
[30] = target: Serine/threonine-protein kinase pim-2 (Homo sapiens) (UniProt Q9P1W9); assay: Inhibition of PIM2 (unknown origin) at 0.45 uM relative to control
[31] = target: Casein kinase I isoform gamma-3 (Homo sapiens) (UniProt Q9Y6M4); assay: Inhibition of CSNK1G3 (unknown origin) at 0.45 uM relative to control
[32] = test system: Epidermal growth factor receptor (Homo sapiens), P00533 [T790M]; assay: Inhibition of EGFR T790M mutant (unknown origin) at 0.45 uM relative to control

- inhibition [1]: 0%
- inhibition [2]: -5.3%
- inhibition [3]: 8.7%
- inhibition [4]: 1.7%
- inhibition [5]: 7.7%
- inhibition [6]: 2%
Compound: COC(=O)Nc1noc2cc(-c3c(-c4ccccn4)n[nH]c3C)ccc12

- inhibition [7]: 1%
- inhibition [8]: 9.7%
- inhibition [9]: 4.3%
- inhibition [10]: -4%
- inhibition [11]: 2.7%
- inhibition [12]: -3%
- inhibition [13]: 5%
- inhibition [14]: -1.7%
- inhibition [15]: 1%
- inhibition [16]: 0.7%
- inhibition [17]: 9.3%
- inhibition [18]: 1.7%
- inhibition [19]: 6.3%
- inhibition [20]: 3.3%
- inhibition [21]: 1.3%
- inhibition [22]: 3.3%
Compound: Cc1[nH]nc(C2CC2)c1-c1ccc2c(NC(=O)C3CC3)noc2c1

- remaining at 0.5 h, 1 µM [23]: 94%
- inhibition [24]: 35%
- inhibition [25]: 0.7%
- inhibition [26]: -0.3%
- inhibition [27]: 3.7%
- inhibition [28]: 7%
- inhibition [29]: -3.3%
- inhibition [30]: -1.7%
- inhibition [31]: -0.7%
- inhibition [32]: 0.7%
Compound: Cc1n[nH]c(C)c1-c1ccc2c(NC(=O)c3ccc(N4CCN(C)CC4)cc3)n[nH]c2c1

From ChEMBL document CHEMBL4052759, “Discovery of DS79182026: A potent orally active hepcidin production inhibitor” (Bioorg Med Chem Lett, 2017)
